From patent US20240294572A1, “Antimicrobial Peptides” (priority 2021, published 2024)
In brackets after ≈: the same amount, converted by molar mass. Residues, ends and D or L forms follow the SMILES beside them. No end group written: not given here. *: point of attachment. Myristoyl = CCCCCCCCCCCCCC(=O)*; Lauroyl = CCCCCCCCCCCC(=O)*; Decanoyl = CCCCCCCCCC(=O)*; Octanoyl = CCCCCCCC(=O)*; Hexanoyl = CCCCCC(=O)*

Experiments:
Format in all cases: cell-based
[1] = test system: human red blood cells (hRBCs); conditions: red cells of human, 1 h
Protocol: Hemolytic assays of peptides were performed as described (Lakshmaiah, et al. (2020) Proc. Natl. Acad. Sci., 117:19446-19454). Briefly, human red blood cells (hRBCs) were obtained from UNMC Blood Bank. The cells were washed 3× with isotonic saline (0.9% NaCl) and diluted to 2% (v/v). Peptides at various concentrations were added to the 2% blood cells and incubated at 37° C. for 1 hour. Post-incubation, the plates were spun at 2000 rpm for 10 minutes; aliquots of the supernatant were carefully transferred to a fresh 96-well microplate. The amount of cells lysed is proportional to the hemoglobin released and was measured at 545 nm using a ChroMate® microplate reader (Awareness Technology, FL). The percent lysis was calculated by assuming 100% release when human blood cells were treated with 1% Triton™ X-100, and 0% release when incubated with PBS. The peptide concentration that caused 50% lysis of hRBCs is defined as HC50. The cell selectivity index (CSI) was calculated as the ratio between HC50 and the MIC of the corresponding peptide against MRSA.

P. aeruginosa PAO1 = test system: P. aeruginosa PAO1
Protocol: (§1) The antibacterial activity of peptides was evaluated using a standard broth microdilution protocol (Clinical Laboratories Standards Institute (CLSI): M07-A10. Methods for Dilution Antimicrobial Susceptibility Tests for Bacteria that grow aerobically; Approved Standard, Tenth Edition, 2015) with minor modifications as described (Mishra, et al. (2019) Proc. Natl. Acad. Sci., 116:13517-13522). In brief, peptides (10 μL per well) with 2-fold dilutions were made in 96-well polystyrene microplates. Subsequently, the logarithmic phase bacterial cultures (i.e., optical density at 600 nm ˜0.5) were diluted to 0.001 OD and aliquoted to 90 μL per well. The plates were incubated overnight at 37°° C. Bacterial controls were treated with water, and the wells containing only the TSB media were used as blank. Positive controls included the parent peptide LL-37 as well as KR12. Post incubation, the plates were read at 630 nm using ChroMate® 4300 Microplate Reader (Awareness Technology, FL).

E. coli ATCC 25922 = test system: E. coli ATCC 25922
Protocol: as §1
(§2) To study the influence of medium conditions on the antimicrobial activity of peptides against S. aureus USA300, different pH, sodium chloride (NaCl), human sera were included into the antibacterial assays. Control experiments in TSB without any additions (pH 7.4) were set up in the same manner. In addition, antimicrobial activities of human LL-37, KR12, and C10-KR8d were compared in 10%, 50%, and 100% TSB as well as in TSB and MHB using E. coli ATCC 25922 and S. aureus USA300 LAC.

S. aureus USA300 LAC = conditions: USA300
Protocol: as §1, §2

[2] = test system: Klebsiella pneumonia ATCC 13883; test: Antibacterial broth microdilution MIC
Protocol: as §1

Row | Molecule | HC50 [1] | MIC (μM) PA (P. aeruginosa PAO1) | MIC (μM) EC (E. coli ATCC 25922) | MIC (μM) SA (S. aureus USA300 LAC) | MIC (μM) KP [2] | Minimal inhibitory concentration against E. coli, 10% TSB (E. coli ATCC 25922) | Minimal inhibitory concentration against E. coli, 50% TSB (E. coli ATCC 25922) | Minimal inhibitory concentration against E. coli, 100% MHB (E. coli ATCC 25922) | Minimal inhibitory concentration against S. aureus, 10% TSB (S. aureus USA300 LAC) | Minimal inhibitory concentration against S. aureus, 50% TSB (S. aureus USA300 LAC) | Minimal inhibitory concentration against S. aureus, 100% MHB (S. aureus USA300 LAC) | Minimal inhibitory concentration against S. aureus, 100% TSB (S. aureus USA300 LAC)
1 | CCCCCCCCCCCCCC(=O)N[C@@H](CCCCN)C(=O)N[C@@H](CCCNC(=N)N)C(=O)N[C@H](C(=O)N[C@@H](Cc1c[nH]c2ccccc12)C(N)=O)[C@@H](C)CC [Peptide C14-KR4] (Myristoyl-KRIW-NH2) | <25 µM | 6.2 µM (≈ 5.03 µg/mL) | 12.5 to 50 µM | 3.1 µM (≈ 2.51 µg/mL) | 12.5 µM (≈ 10.1 µg/mL) |  |  |  |  |  |  | 
2 | CCCCCCCCCC(=O)N[C@@H](CCCCN)C(=O)N[C@@H](CCCNC(=N)N)C(=O)N[C@H](C(=O)N[C@@H](Cc1c[nH]c2ccccc12)C(=O)N[C@@H](CCC(N)=O)C(=O)N[C@@H](CCCNC(=N)N)C(=O)N[C@H](C(=O)N[C@@H](CCCCN)C(=O)N[C@@H](CC(=O)O)C(=O)N[C@@H](Cc1ccccc1)C(N)=O)[C@@H](C)CC)[C@@H](C)CC [Peptide C10-KR10] (Decanoyl-KRIWQRIKDF-NH2) | 50 µM |  | 3.1 µM (≈ 4.78 µg/mL) | 1.5 µM (≈ 2.31 µg/mL) | 6.2 µM (≈ 9.57 µg/mL) |  |  |  |  |  |  | 
3 | CCCCCCCCCCCC(=O)N[C@@H](CCCCN)C(=O)N[C@@H](CCCNC(=N)N)C(=O)N[C@H](C(=O)N[C@@H](Cc1c[nH]c2ccccc12)C(=O)N[C@@H](CCC(N)=O)C(=O)N[C@@H](CCCNC(=N)N)C(=O)N[C@H](C(=O)N[C@@H](CCCCN)C(N)=O)[C@@H](C)CC)[C@@H](C)CC [Peptide C12-KR8] (Lauroyl-KRIWQRIK-NH2) | 35 µM | 3.1 µM (≈ 4.06 µg/mL) | 6.2 µM (≈ 8.11 µg/mL) | 1.5 µM (≈ 1.96 µg/mL) | >50 µM |  |  |  |  |  |  | 
4 | CCCCCCCCCC(=O)N[C@@H](CCCCN)C(=O)N[C@@H](CCCNC(=N)N)C(=O)N[C@H](C(=O)N[C@@H](Cc1c[nH]c2ccccc12)C(=O)N[C@@H](CCC(N)=O)C(=O)N[C@@H](CCCNC(=N)N)C(=O)N[C@H](C(=O)N[C@@H](CCCCN)C(=O)N[C@@H](CC(=O)O)C(=O)N[C@@H](Cc1ccccc1)C(=O)N[C@@H](CC(C)C)C(=O)N[C@@H](CCCNC(=N)N)C(N)=O)[C@@H](C)CC)[C@@H](C)CC [Peptide C10-KR12] (Decanoyl-KRIWQRIKDFLR-NH2) | <25 µM | 25 µM (≈ 45.3 µg/mL) | >50 µM | 3.1 µM (≈ 5.62 µg/mL) | 6.2 to 12.5 µM |  |  |  |  |  |  | 
5 | CCCCCCCCCC(=O)N[C@@H](CCCCN)C(=O)N[C@@H](CCCNC(=N)N)C(=O)N[C@H](C(=O)N[C@@H](Cc1c[nH]c2ccccc12)C(=O)N[C@@H](CCC(N)=O)C(=O)N[C@@H](CCCNC(=N)N)C(N)=O)[C@@H](C)CC [Peptide C10-KR6] (Decanoyl-KRIWQR-NH2) | >340 µM | 25 µM (≈ 26 µg/mL) | 50 µM (≈ 52 µg/mL) | 12.5 µM (≈ 13 µg/mL) | >50 µM |  |  |  |  |  |  | 
6 | CCCCCCCCCCCC(=O)N[C@@H](CCCCN)C(=O)N[C@@H](CCCNC(=N)N)C(=O)N[C@H](C(=O)N[C@@H](Cc1c[nH]c2ccccc12)C(=O)N[C@@H](CCC(N)=O)C(=O)N[C@@H](CCCNC(=N)N)C(=O)N[C@H](C(=O)N[C@@H](CCCCN)C(=O)N[C@@H](CC(=O)O)C(=O)N[C@@H](Cc1ccccc1)C(=O)N[C@@H](CC(C)C)C(=O)N[C@@H](CCCNC(=N)N)C(N)=O)[C@@H](C)CC)[C@@H](C)CC [Peptide C12-KR12] (Lauroyl-KRIWQRIKDFLR-NH2) | <25 µM | >50 µM | >50 µM | 6.2 µM (≈ 11.4 µg/mL) | 12.5 µM (≈ 23 µg/mL) |  |  |  |  |  |  | 
7 | CCCCCCCCCC(=O)N[C@@H](CCCCN)C(=O)N[C@@H](CCCNC(=N)N)C(=O)N[C@H](C(=O)N[C@@H](Cc1c[nH]c2ccccc12)C(N)=O)[C@@H](C)CC [Peptide C10-KR4] (Decanoyl-KRIW-NH2) | 150 µM | 12.5 µM (≈ 9.44 µg/mL) | 50 µM (≈ 37.8 µg/mL) | 12.5 µM (≈ 9.44 µg/mL) | >50 µM |  |  |  |  |  |  | 
8 | CCCCCC(=O)N[C@@H](CCCCN)C(=O)N[C@@H](CCCNC(=N)N)C(=O)N[C@H](C(=O)N[C@@H](Cc1c[nH]c2ccccc12)C(=O)N[C@@H](CCC(N)=O)C(=O)N[C@@H](CCCNC(=N)N)C(=O)N[C@H](C(=O)N[C@@H](CCCCN)C(N)=O)[C@@H](C)CC)[C@@H](C)CC [Peptide C6-KR8] (Hexanoyl-KRIWQRIK-NH2) | >200 µM | >50 µM | >50 µM | >50 µM | >50 µM |  |  |  |  |  |  | 
9 | CCCCCCCCCCCC(=O)N[C@@H](CCCCN)C(=O)N[C@@H](CCCNC(=N)N)C(=O)N[C@H](C(=O)N[C@@H](Cc1c[nH]c2ccccc12)C(N)=O)[C@@H](C)CC [Peptide C12-KR4] (Lauroyl-KRIW-NH2) | 30 µM | 6.2 µM (≈ 4.86 µg/mL) | 12.5 µM (≈ 9.79 µg/mL) | 3.1 µM (≈ 2.43 µg/mL) | >50 µM |  |  |  |  |  |  | 
10 | CCCCCCCC(=O)N[C@@H](CCCCN)C(=O)N[C@@H](CCCNC(=N)N)C(=O)N[C@H](C(=O)N[C@@H](Cc1c[nH]c2ccccc12)C(=O)N[C@@H](CCC(N)=O)C(=O)N[C@@H](CCCNC(=N)N)C(=O)N[C@H](C(=O)N[C@@H](CCCCN)C(=O)N[C@@H](CC(=O)O)C(=O)N[C@@H](Cc1ccccc1)C(=O)N[C@@H](CC(C)C)C(=O)N[C@@H](CCCNC(=N)N)C(N)=O)[C@@H](C)CC)[C@@H](C)CC [Peptide C8-KR12] (Octanoyl-KRIWQRIKDFLR-NH2) | <25 µM | 6.2 µM (≈ 11.1 µg/mL) | 6.2 µM (≈ 11.1 µg/mL) | 3.1 µM (≈ 5.53 µg/mL) | <6.2 µM |  |  |  |  |  |  | 
11 | CCCCCCCC(=O)N[C@@H](CCCCN)C(=O)N[C@@H](CCCNC(=N)N)C(=O)N[C@H](C(=O)N[C@@H](Cc1c[nH]c2ccccc12)C(N)=O)[C@@H](C)CC [Peptide C8-KR4] (Octanoyl-KRIW-NH2) | >200 µM | >50 µM | >50 µM | >50 µM | >50 µM |  |  |  |  |  |  | 
12 | CCCCCC(=O)N[C@@H](CCCCN)C(=O)N[C@@H](CCCNC(=N)N)C(=O)N[C@H](C(=O)N[C@@H](Cc1c[nH]c2ccccc12)C(=O)N[C@@H](CCC(N)=O)C(=O)N[C@@H](CCCNC(=N)N)C(=O)N[C@H](C(=O)N[C@@H](CCCCN)C(=O)N[C@@H](CC(=O)O)C(=O)N[C@@H](Cc1ccccc1)C(=O)N[C@@H](CC(C)C)C(=O)N[C@@H](CCCNC(=N)N)C(N)=O)[C@@H](C)CC)[C@@H](C)CC [Peptide C6-KR12] (Hexanoyl-KRIWQRIKDFLR-NH2) | 25 µM | 12.5 µM (≈ 22 µg/mL) | 3.1 µM (≈ 5.44 µg/mL) | <1.5 µM | 6.2 µM (≈ 10.9 µg/mL) |  |  |  |  |  |  | 
13 | KRIVQRIKDFLR-NH2 [KR12, reference compound] | >340 µM | 25 µM | 50 µM |  | >50 µM | 1.6 µM | 3.1 µM | >50 µM | 6.2 µM | >50 µM | >50 µM | >50 µM
14 | CCCCCCCCCCCC(=O)N[C@@H](CCCCN)C(=O)N[C@@H](CCCNC(=N)N)C(=O)N[C@H](C(=O)N[C@@H](Cc1c[nH]c2ccccc12)C(=O)N[C@@H](CCC(N)=O)C(=O)N[C@@H](CCCNC(=N)N)C(N)=O)[C@@H](C)CC [Peptide C12-KR6] (Lauroyl-KRIWQR-NH2) | 75 µM | 6.2 µM (≈ 6.62 µg/mL) | 12.5 µM (≈ 13.3 µg/mL) | 3.1 µM (≈ 3.31 µg/mL) | >50 µM |  |  |  |  |  |  | 
15 | CCCCCCCCCCCC(=O)N[C@@H](CCCCN)C(=O)N[C@@H](CCCNC(=N)N)C(=O)N[C@H](C(=O)N[C@@H](Cc1c[nH]c2ccccc12)C(=O)N[C@@H](CCC(N)=O)C(=O)N[C@@H](CCCNC(=N)N)C(=O)N[C@H](C(=O)N[C@@H](CCCCN)C(=O)N[C@@H](CC(=O)O)C(=O)N[C@@H](Cc1ccccc1)C(N)=O)[C@@H](C)CC)[C@@H](C)CC [Peptide C12-KR10] (Lauroyl-KRIWQRIKDF-NH2) | <25 µM |  | 6.2 µM (≈ 9.74 µg/mL) | 1.5 µM (≈ 2.36 µg/mL) | 3.1 µM (≈ 4.87 µg/mL) |  |  |  |  |  |  | 
